In PMC3344384 (Chemistry & biology, 2011):

What follows are molecules tested against T1, UCH-L3 (Homo sapiens, UniProt P15374) (assay: Ub-Rho assay, UCH-L3). Conditions: not given.
T1 sequence (P15374 1-230): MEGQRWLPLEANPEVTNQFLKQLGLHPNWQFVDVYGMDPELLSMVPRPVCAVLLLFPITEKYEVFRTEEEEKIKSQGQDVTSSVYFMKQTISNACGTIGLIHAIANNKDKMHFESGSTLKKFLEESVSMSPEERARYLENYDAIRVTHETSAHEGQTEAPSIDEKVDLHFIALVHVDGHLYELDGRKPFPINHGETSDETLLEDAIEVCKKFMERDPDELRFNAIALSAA
Assay type: biochemical

SMILES	IC50 [µM]
OCCN1CCN(CCC=C2c3ccccc3Sc3ccc(C(F)(F)F)cc32)CC1 [Flupenthixol, flupenthixol]	> 500
O=c1[nH]c2ccccc2n1C1CCN(CCCC(c2ccc(F)cc2)c2ccc(F)cc2)CC1 [Pimozide, pimozide]	> 500
CN1CCN(CCCN2c3ccccc3Sc3ccc(C(F)(F)F)cc32)CC1 [Trifluoperazine, trifluoperazine]	> 500
CC(C)(Sc1ccc(CCN(CCCCC2CCCCC2)C(=O)NC2CCCCC2)cc1)C(=O)O [GW7647]	> 200

The molecules below were run against T2, caspase-6 (Homo sapiens, UniProt P55212) (assay: cysteine protease selectivity, caspase-6). Conditions: not given.
T2 sequence (P55212 24-179 limits assumed): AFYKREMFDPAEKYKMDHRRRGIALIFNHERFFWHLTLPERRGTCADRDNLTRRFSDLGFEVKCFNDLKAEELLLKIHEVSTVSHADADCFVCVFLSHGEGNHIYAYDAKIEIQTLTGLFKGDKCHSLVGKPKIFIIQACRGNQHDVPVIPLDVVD
T2 sequence (P55212 194-293 limits assumed): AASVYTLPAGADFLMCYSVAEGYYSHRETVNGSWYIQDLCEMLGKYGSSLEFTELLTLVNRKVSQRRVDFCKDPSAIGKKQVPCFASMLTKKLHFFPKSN
Assay type: biochemical

SMILES	IC50 [µM]
OCCN1CCN(CCC=C2c3ccccc3Sc3ccc(C(F)(F)F)cc32)CC1 [Flupenthixol, flupenthixol]	> 250
O=c1[nH]c2ccccc2n1C1CCN(CCCC(c2ccc(F)cc2)c2ccc(F)cc2)CC1 [Pimozide, pimozide]	> 250
CN1CCN(CCCN2c3ccccc3Sc3ccc(C(F)(F)F)cc32)CC1 [Trifluoperazine, trifluoperazine]	> 250
CC(C)(Sc1ccc(CCN(CCCCC2CCCCC2)C(=O)NC2CCCCC2)cc1)C(=O)O [GW7647]	21

The molecules below were run against USP1/UAF1 (Homo sapiens, UniProt O94782+Q8TAF3) (assay: reversibility of inhibition by rapid dilution). Conditions: incubation at 10 times IC50, 100-fold rapid dilution.
Chain of USP1/UAF1 (O94782 whole entry): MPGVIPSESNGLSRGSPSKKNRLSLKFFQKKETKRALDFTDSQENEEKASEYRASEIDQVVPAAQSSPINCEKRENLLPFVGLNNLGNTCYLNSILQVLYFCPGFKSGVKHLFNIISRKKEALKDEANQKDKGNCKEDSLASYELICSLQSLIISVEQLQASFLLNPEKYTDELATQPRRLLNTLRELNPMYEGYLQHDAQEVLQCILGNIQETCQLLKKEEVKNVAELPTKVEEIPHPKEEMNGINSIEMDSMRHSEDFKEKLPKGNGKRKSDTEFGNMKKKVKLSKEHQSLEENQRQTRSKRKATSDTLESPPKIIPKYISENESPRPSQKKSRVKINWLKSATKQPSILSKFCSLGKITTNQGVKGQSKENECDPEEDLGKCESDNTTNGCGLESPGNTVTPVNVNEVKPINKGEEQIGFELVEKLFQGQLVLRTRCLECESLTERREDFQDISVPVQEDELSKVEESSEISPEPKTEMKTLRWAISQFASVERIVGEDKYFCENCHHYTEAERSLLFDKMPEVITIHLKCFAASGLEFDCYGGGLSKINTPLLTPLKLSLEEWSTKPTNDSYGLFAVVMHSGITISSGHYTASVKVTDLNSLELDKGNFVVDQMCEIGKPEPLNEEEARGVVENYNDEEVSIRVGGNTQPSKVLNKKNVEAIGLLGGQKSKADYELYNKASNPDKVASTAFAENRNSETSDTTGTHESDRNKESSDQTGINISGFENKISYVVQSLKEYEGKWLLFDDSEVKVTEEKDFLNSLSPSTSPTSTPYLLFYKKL
Chain of USP1/UAF1 (Q8TAF3 whole entry): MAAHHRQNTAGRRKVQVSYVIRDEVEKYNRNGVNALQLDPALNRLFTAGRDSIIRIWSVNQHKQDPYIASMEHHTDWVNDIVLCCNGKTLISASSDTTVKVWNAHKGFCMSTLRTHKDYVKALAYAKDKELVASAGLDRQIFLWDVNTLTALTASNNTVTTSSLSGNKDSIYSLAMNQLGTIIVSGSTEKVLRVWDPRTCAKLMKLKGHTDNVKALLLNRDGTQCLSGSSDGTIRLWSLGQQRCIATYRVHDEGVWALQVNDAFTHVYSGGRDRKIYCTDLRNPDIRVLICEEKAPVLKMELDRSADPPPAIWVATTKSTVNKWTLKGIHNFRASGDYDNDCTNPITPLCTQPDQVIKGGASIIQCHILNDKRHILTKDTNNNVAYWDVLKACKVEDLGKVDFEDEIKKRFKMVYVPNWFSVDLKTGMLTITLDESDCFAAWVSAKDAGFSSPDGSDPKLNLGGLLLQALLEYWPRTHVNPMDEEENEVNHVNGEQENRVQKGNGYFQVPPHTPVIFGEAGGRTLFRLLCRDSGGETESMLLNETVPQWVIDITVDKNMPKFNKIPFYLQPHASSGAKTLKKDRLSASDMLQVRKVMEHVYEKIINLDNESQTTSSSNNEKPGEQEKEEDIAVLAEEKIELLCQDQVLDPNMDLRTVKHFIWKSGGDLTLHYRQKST

SMILES	reversibility of inhibition
OCCN1CCN(CCC=C2c3ccccc3Sc3ccc(C(F)(F)F)cc32)CC1 [Flupenthixol, flupenthixol]	largely reversible inhibitors
O=c1[nH]c2ccccc2n1C1CCN(CCCC(c2ccc(F)cc2)c2ccc(F)cc2)CC1 [Pimozide, pimozide]	largely reversible inhibitors
CN1CCN(CCCN2c3ccccc3Sc3ccc(C(F)(F)F)cc32)CC1 [Trifluoperazine, trifluoperazine]	largely reversible inhibitors
CC(C)(Sc1ccc(CCN(CCCCC2CCCCC2)C(=O)NC2CCCCC2)cc1)C(=O)O [GW7647]	largely reversible inhibitors

Each molecule was assayed against T3, USP8 (Homo sapiens, UniProt P40818) (assay: K63-linked diubiquitin cleavage assay, USP8). Conditions: not given.
T3 sequence (P40818 1-1118): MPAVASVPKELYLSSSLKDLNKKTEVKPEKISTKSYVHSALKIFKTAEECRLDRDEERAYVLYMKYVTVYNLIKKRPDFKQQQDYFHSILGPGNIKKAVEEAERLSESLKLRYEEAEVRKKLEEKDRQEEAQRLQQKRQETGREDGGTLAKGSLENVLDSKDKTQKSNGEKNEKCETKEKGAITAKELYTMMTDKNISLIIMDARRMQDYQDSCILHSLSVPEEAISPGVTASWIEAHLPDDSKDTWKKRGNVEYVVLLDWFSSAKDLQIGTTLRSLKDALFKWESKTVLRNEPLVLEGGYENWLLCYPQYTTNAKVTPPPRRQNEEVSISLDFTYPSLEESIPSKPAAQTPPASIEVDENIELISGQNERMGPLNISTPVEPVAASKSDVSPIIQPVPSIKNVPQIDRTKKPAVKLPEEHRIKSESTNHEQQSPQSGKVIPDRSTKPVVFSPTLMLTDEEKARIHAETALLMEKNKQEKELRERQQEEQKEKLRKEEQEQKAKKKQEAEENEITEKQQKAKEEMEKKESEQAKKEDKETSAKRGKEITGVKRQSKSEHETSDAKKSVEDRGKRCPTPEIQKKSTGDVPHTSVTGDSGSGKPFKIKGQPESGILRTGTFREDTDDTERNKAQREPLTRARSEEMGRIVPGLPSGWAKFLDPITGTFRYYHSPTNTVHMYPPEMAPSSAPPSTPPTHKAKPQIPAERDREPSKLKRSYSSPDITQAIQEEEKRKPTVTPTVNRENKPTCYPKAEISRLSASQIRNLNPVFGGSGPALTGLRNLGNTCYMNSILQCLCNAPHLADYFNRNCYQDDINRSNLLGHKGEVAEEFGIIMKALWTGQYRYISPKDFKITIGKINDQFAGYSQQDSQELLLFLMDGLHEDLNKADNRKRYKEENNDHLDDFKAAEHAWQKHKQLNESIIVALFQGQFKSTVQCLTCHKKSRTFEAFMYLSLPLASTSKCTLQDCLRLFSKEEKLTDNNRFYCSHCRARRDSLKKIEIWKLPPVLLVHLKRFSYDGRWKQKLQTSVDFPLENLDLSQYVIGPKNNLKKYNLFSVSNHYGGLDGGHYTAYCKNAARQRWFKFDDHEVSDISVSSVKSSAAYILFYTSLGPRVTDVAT

SMILES	IC50 [µM]
OCCN1CCN(CCC=C2c3ccccc3Sc3ccc(C(F)(F)F)cc32)CC1 [Flupenthixol, flupenthixol]	> 114

Same assay, conditions: K63-linked diubiquitin substrate; NI = no significant inhibition at 114 μM

SMILES	IC50 USP8
O=c1[nH]c2ccccc2n1C1CCN(CCCC(c2ccc(F)cc2)c2ccc(F)cc2)CC1 [Pimozide, pimozide]	No inhibition
CC(C)(Sc1ccc(CCN(CCCCC2CCCCC2)C(=O)NC2CCCCC2)cc1)C(=O)O [GW7647]	did not inhibit

What follows are molecules tested against T4, caspase-3 (Homo sapiens, UniProt P42574) (assay: cysteine protease selectivity, caspase-3). Conditions: not given.
T4 sequence (P42574 29-175 limits assumed): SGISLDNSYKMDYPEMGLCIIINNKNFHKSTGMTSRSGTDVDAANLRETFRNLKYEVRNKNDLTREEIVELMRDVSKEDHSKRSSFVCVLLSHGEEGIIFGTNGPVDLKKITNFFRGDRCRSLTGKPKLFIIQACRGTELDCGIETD
T4 sequence (P42574 176-277 limits assumed): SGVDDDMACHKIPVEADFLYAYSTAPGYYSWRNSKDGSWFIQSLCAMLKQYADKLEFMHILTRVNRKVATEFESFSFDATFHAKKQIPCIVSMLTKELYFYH
Assay type: biochemical

SMILES	IC50 [µM]
OCCN1CCN(CCC=C2c3ccccc3Sc3ccc(C(F)(F)F)cc32)CC1 [Flupenthixol, flupenthixol]	> 250
O=c1[nH]c2ccccc2n1C1CCN(CCCC(c2ccc(F)cc2)c2ccc(F)cc2)CC1 [Pimozide, pimozide]	> 250
CN1CCN(CCCN2c3ccccc3Sc3ccc(C(F)(F)F)cc32)CC1 [Trifluoperazine, trifluoperazine]	> 250
CC(C)(Sc1ccc(CCN(CCCCC2CCCCC2)C(=O)NC2CCCCC2)cc1)C(=O)O [GW7647]	> 250

Each molecule was assayed against T5, papain (Carica papaya, UniProt P00784) (assay: cysteine protease selectivity, papain). Conditions: not given.
T5 sequence (P00784 134-345): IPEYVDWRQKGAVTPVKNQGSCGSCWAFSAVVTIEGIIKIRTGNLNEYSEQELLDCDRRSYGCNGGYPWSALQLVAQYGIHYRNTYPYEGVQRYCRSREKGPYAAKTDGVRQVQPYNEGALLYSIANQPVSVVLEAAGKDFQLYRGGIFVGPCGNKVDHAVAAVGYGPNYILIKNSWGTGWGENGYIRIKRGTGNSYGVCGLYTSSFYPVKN
Assay type: biochemical

SMILES	IC50 [µM]
OCCN1CCN(CCC=C2c3ccccc3Sc3ccc(C(F)(F)F)cc32)CC1 [Flupenthixol, flupenthixol]	> 250
O=c1[nH]c2ccccc2n1C1CCN(CCCC(c2ccc(F)cc2)c2ccc(F)cc2)CC1 [Pimozide, pimozide]	> 250
CN1CCN(CCCN2c3ccccc3Sc3ccc(C(F)(F)F)cc32)CC1 [Trifluoperazine, trifluoperazine]	~130
CC(C)(Sc1ccc(CCN(CCCCC2CCCCC2)C(=O)NC2CCCCC2)cc1)C(=O)O [GW7647]	~130
